Experimental findings from PMC5444695, “CM363, a novel naphthoquinone derivative which acts as multikinase modulator and overcomes imatinib resistance in chronic myelogenous leukemia” (Oncotarget, 2016) are described below.

Common to all, as to format: cell-based
Experiment [1] concerns Stat5 response element. Nature of the experiment: Stat5 luciferase reporter gene assay in HEKGHR cells. The following applies: 1 h pretreatment then GH 7 h. The method, then:
The HEKGHR cell line was used to determine the effects of compounds on GH-regulated Stat5 transcriptional activity. HEKGHR cells were transfected with pSPI-GLE1-Luc (1 μg) overnight using Metafectene Pro® (Biontex, Germany). The β-galactosidase expression plasmid (0.05 μg) (Thermo Scientific, Illinois, USA) was used for controlling transfection efficiency. The stable reporter cell line HeLa/Stat3-luc (Panomics, Fremont, USA), was used to determine the effects of compounds on oncostatin M-regulated Stat3 transcriptional activity. Cells were seeded in a 6-well culture plate (Nunc, Denmark) and they were serum deprived (0.5% FBS) for 16 h. Then, cells were treated with vehicle (0.05% DMSO) or compound (0.1 to 10 μM) during 1 h before rhGH (50 nM) or oncostatin M (50 ng/ml) were added for 7 h for induction of Stat5- or Stat3-dependent transcriptional activities, respectively. Cells were lysed in Passive Lysis Buffer and luciferase activity was determined by the Luciferase Assay System (Thermo Scientific, Illinois, USA). Luciferase activity was measured using the microplate reader Fluoroskan Ascent FL (Labsystems). Results are expressed as relative luciferase units (RLU) per mg of protein content and β-galactosidase activity and normalized to those obtained for vehicle-treated control cells.
For orientation: Reporter assays use an easily measured gene product as a stand-in for the process of interest.

Experiment [2] relates to PC3 cells. Nature of the experiment: MTT cell viability assay, PC3 cells. Conditions: Homo sapiens, PC-3, PC3, 48 h, read-out: IC50 (μM) Mean ± SD. On the procedure:
(§1) All cell lines were purchased from the American Type Culture Collection (ATCC). The cell lines were growth at 37°C under 5% CO2 under humidified atmosphere. The cell lines K562 (derived from patients during the blast crisis phase of CML and IM sensitive), K562-R (IM resistance human CML), KmycBT15I (KBTI; IM resistant human CML, expressing the Bcr-Abl […] mutant), HEL (human erythroleukemia), HL60 (human acute myeloid leukemia), MOLM-13 (human acute myeloid leukemia), MV4.11 (human acute monocytic leukemia), HCT-15 (human colorectal adenocarcinoma), PC3 (human prostate cancer), MCF7 (human breast cancer), NCTC3749 (mouse lymphoma) as well as the MRC.5 cells (non-malignant human lung fibroblasts) were maintained in RPMI-1640 medium. The cell lines L1210 (mouse lymphocytic leukemia cells), Raw (mouse macrophage), HeLa (human epithelial cervix cancer), U-2 OS (human osteosarcoma), MG63 (human osteosarcoma) and T47D (human breast cancer adenocarcinoma) were maintained in DMEM. HEK293 cells stably expressing the GH receptor (HEKGHR) were maintained in DMEM-F12 medium. […]
(§2) Cells were seeded in 96-well plates (BD Falcon, France) at exponential growth density (5000–20000 cells/well) and treated with vehicle (0.05% DMSO) or compound (0.01 to 10 μM) for 48–72 h. […] Optical density was measured at 595 nm with the iMark Microplate Reader (BioRad, CA, USA).

In experiment [3] the test system is U-2 OS cells. Nature of the experiment: MTT cell viability assay, U-2 OS cells. Conditions: Homo sapiens, U2OS, 48 h, read-out: IC50 (μM) Mean ± SD. The method, then: as §1, §2
The test system of experiment [4] is MG63 cells. Nature of the experiment: MTT cell viability assay, MG63 cells. The following applies: Homo sapiens, MG-63, MG63, 48 h, read-out: IC50 (μM) Mean ± SD. The method, then:
as §1, §2
For orientation: Tetrazolium assays rely on reduction of a dye to a coloured formazan, in cell work by metabolically active cells.

In experiment [5] the test system is pYStat5. Nature of the experiment: GM-CSF-induced pYStat5 in primary mouse macrophages. Conditions: 3 μM CM363 for 0.5 h, data not shown.
In experiment [6] the test system is IM resistant K562 cells (K562-R). Nature of the experiment: Live-cell imaging (IncuCyte HD) of proliferation, IM resistant K562 cells. The following applies: Homo sapiens, 96 h, 4-day period, area under curve, read-out: IC50AUC, cytostatic effect on cell growth. The method, then: Kinetic measurements of cell proliferation and cytotoxicity were carried out by using the IncuCyte^TM HD real time imaging system (Essen BioScience, Hertfordshire, United Kingdom). After seeding in a polylysine-coated 96 well-plates, K562 cells were treated with different concentrations of compound. This IncuCyte™ microscope permits the acquisition of automated phase contrast images. Individual images are processed by an imbedded contrast-based confluence algorithm, which compute monolayer confluence for each image and at each time point. Multiple images are collected per well and averaged to provide a representative statistical measure of confluence.

Experiment [7] has as its system MCF7 cells. Nature of the experiment: MTT cell viability assay, MCF7 cells. Conditions: Homo sapiens, MCF7, 48 h, read-out: IC50 (μM) Mean ± SD. On the procedure:
as §1, §2

The subject of experiment [8] is MOLM.13 cells. Nature of the experiment: MTT cell viability assay, MOLM.13 cells. Conditions: Homo sapiens, MOLM.13, 48 h, read-out: IC50 (μM) Mean ± SD. The method, then:
as §1, §2

For `N#Cc1ccc(C2C3=C(CCCC3=O)OC3=C2C(=O)c2ccccc2C3=O)cc1` (centres unmarked) [CM363, 4-(1,6,11-trioxo-2,3,4,6,11,12-hexahydro-1H-benzo[b]xanthen-12-yl)benzonitrile], the “Stat5-dependent reporter gene (luciferase) activity” value in experiment [1] is reported as “inhibit”. The IC50 in experiment [2] was 1.5 ± 1 µM; in experiment [3], 4.3 ± 1.2 µM; in experiment [4], 1.6 ± 0.9 µM; in experiment [6] it was 500 ± 100 nM; in experiment [7], 1.7 ± 1.1 µM; in experiment [8], 0.7 ± 1.1 µM. Moreover, in experiment [5], the “inhibition of GM-CSF-induced (10 min) pYStat5” value was “complete inhibition”.
